Reference: publication PMC9295568, “Dual Inhibition of Vacuolar-ATPase and TMPRSS2 Is Required for Complete Blockade of SARS-CoV-2 Entry into Cells” (Antimicrobial Agents and Chemotherapy, 2022)
Where two headings read alike, the source gives them in different places.

Key:
Assay type in all cases: cell-based
[1] = system: SARS-CoV-2 PsV B.1.1.529 (Omicron); assay: microbe, parasite or virus in culture; details: Severe acute respiratory syndrome coronavirus 2, HeLa-ACE2, read-out: IC50, inhibition of PsV entry
[2] = system: SARS-CoV-2 PsV B.1.1.7 (Alpha); assay: microbe, parasite or virus in culture; details: Severe acute respiratory syndrome coronavirus 2, Vero/TMPRSS2, read-out: IC50, inhibition of PsV entry
[3] = system: authentic SARS-CoV-2 (SARS-CoV-2/Canada/ON/VIDO-01/2020/Vero'76/p2); assay: microbe, parasite or virus in culture; details: for IC50: Severe acute respiratory syndrome coronavirus 2, Vero 76, read-out: IC50, authentic SARS-CoV-2
SARS-CoV-2 PsV = system: SARS-CoV-2 PsV
[4] = system: authentic SARS-CoV-2 (SARS-CoV-2/Canada/ON/VIDO-01/2020/Vero'76/p2); assay: microbe, parasite or virus in culture; details: for IC50: Severe acute respiratory syndrome coronavirus 2, read-out: IC50, authentic SARS-CoV-2
[5] = system: SARS-CoV-2 PsV B.1.351 (Beta); assay: microbe, parasite or virus in culture; details: Severe acute respiratory syndrome coronavirus 2, HeLa-ACE2, read-out: IC50, inhibition of PsV entry
[6] = system: SARS-CoV-2 PsV (wild-type S protein); assay: microbe, parasite or virus in culture
[7] = system: SARS-CoV-2 PsV (wild-type S protein); assay: microbe, parasite or virus in culture; details: for IC50: Severe acute respiratory syndrome coronavirus 2, Vero-TMPRSS2 (+TMPRSS2), WT PsV, read-out: IC50, inhibition of PsV entry
[8] = system: SARS-CoV-2 PsV B.1.1.7 (Alpha); assay: microbe, parasite or virus in culture; details: Severe acute respiratory syndrome coronavirus 2, HeLa-ACE2, read-out: IC50, inhibition of PsV entry
[9] = system: SARS-CoV-2 PsV B.1.351 (Beta); assay: microbe, parasite or virus in culture; details: Severe acute respiratory syndrome coronavirus 2, Vero/TMPRSS2, read-out: IC50, inhibition of PsV entry
[10] = system: SARS-CoV-2 PsV B.1.1.529 (Omicron); assay: microbe, parasite or virus in culture; details: Severe acute respiratory syndrome coronavirus 2, Vero/TMPRSS2, read-out: IC50, inhibition of PsV entry
[11] = system: endosomal acidification in HeLa-ACE2 cells; assay: Inhibition of endosomal acidification (LysoTracker Red DND-99), HeLa-ACE2 cells
Method: Inhibition of endosomal acidification was measured using LysoTracker Red DND-99 (ThermoFisher). HeLa-ACE2 and Vero-TMPRSS2 cells were prepared following the above-mentioned protocol, where 10,000 cells/well of pre-seeded cells were cocultured with the same serial dilutions of the sample compounds at 37°C for 2 h. Following this, 0.1 μM final concentration of LysoTracker Red DND-99 (ThermoFisher) was added to each well and incubated for 30 min at 37°C. The cell medium was then replaced with 100 μL of FluoroBrite DMEM (ThermoFisher). Fluorescence was measured using a Synergy Neo2 Multi-Mode Assay Microplate Reader (Biotek Instruments) while employing a Texas Red filter. Data were plotted and IC50 values were calculated using Prism 9 (GraphPad).

[12] = system: endosomal acidification in Vero cells; assay: cells; details: Chlorocebus sabaeus; Vero cells, 40 μM, singlet (n=1); read-out: Percent Inhibition (%) of endosomal acidification
Method: Inhibition of endosomal acidification was measured using LysoTracker Red DND-99 (ThermoFisher). […] Data were plotted using Prism 9 (GraphPad).

[13] = Cell viability (CellTiter-Glo), HeLa-ACE2 cells; details: human, read-out: half-cytotoxic concentration (CC50)
Method: (§1) In order to confirm that the reduced luminescence was not related to cell toxicity, HeLa-ACE2 and Vero-TMPRSS2 cell viability upon incubation with serial dilutions of the sample compounds were tested in parallel to the neutralization assay. […] Cell viability was monitored by adding 50 μL of CellTiter-Glo reagent (Promega) to 200 μL of media containing cells. After a 10-minute incubation, 100 μL volume was transferred to a 96-well white plate (Sigma-Aldrich) to measure luminescence using a Synergy Neo2 Multi-Mode Assay Microplate Reader (Biotek Instruments). As an additional measure of cell toxicity Vero cell, lacking TMPRSS2, viability was measured using PrestoBlue (ThermoFisher). 10,000 cells/well of pre-seeded Vero cells were cocultured with the same serial dilutions of the sample compounds at 37°C for 48 h. At 48 h, 10 μL of PrestoBlue (ThermoFisher) was added to 100 μL of media containing cells. After a 2 h incubation, fluorescence was measured using a Spectromax m5e (Molecular Devices) at an excitation of 555 nm and emission of 585 nm. Data were plotted and half-cytotoxic concentration (CC50) values were calculated using Prims 9 (GraphPad).

HeLa-ACE2 cells = assay: Cell viability (CellTiter-Glo), HeLa-ACE2 cells; details: same dose range as PsV assay
Method: as §1

[14] = HeLa-ACE2, concentrations up to 40 μM
[15] = HeLa-ACE2, concentrations higher than 1 μM

Compound | IC50 [1] | IC50 [3] | inhibition of PsV entry by single compound (in words) (SARS-CoV-2 PsV) | IC50 [4] | IC50 [5] | IC50 [7] | IC50 [8] | IC50 [9] | IC50 [10] | inhibition at 40 µM [12] | CC50 [13] | other results
CN(C)C(=O)COC(=O)Cc1ccc(OC(=O)c2ccc(NC(=N)N)cc2)cc1 [Camostat] | > 300000 nM | > 100000 nM | neither Camostat nor bafilomycin A1 alone fully inhibited PsV entry | 38 nM | > 300000 nM | 252 nM | > 300000 nM | 275 nM | > 7500 nM |  |  | IC50 [2]: 133 nM; inhibition of PsV entry (in words) ([6]; HeLa-ACE2 cells lacking TMPRSS2): unable to inhibit; IC50 ([6]; Severe acute respiratory syndrome coronavirus 2, HeLa-ACE2, read-out: IC50, inhibition of PsV entry, HeLa-ACE2 (-TMPRSS2), WT PsV): > 300000 nM; IC50 ([6]; Severe acute respiratory syndrome coronavirus 2, HeLa-ACE2, read-out: IC50, inhibition of PsV entry, HeLa-ACE2 (-TMPRSS2), wild-type S PsV): > 200000 nM
O=C(Nc1cc(Cl)cc(Cl)c1O)c1c(O)c(Cl)cc(Cl)c1Cl [Oxyclozanide, oxyclozanide] |  |  |  |  |  |  |  |  |  | 55% | 18700 nM | effect on endosomal acidification (in words) [11, 14]: did not alter; effect on infection levels (in words) [6, 14]: did not alter
CO/C1=C\C(C)=C\[C@@H](C)[C@@H](O)[C@@H](C)C/C(C)=C/C=C/[C@H](OC)[C@@H]([C@@H](C)[C@@H](O)[C@H](C)[C@@]2(O)C[C@@H](O)[C@H](C)[C@@H](C(C)C)O2)OC1=O [bafilomycin A1] | 0.3 nM | 9 nM | neither Camostat nor bafilomycin A1 alone fully inhibited PsV entry | 0.4 nM | 0.5 nM | 9.6 nM | 0.8 nM | 3.4 nM | 1.9 nM |  |  | IC50 ([11]; HeLa-ACE2 cells): 0.9 nM; effect on SARS-CoV-2 infection titers (in words) [3]: significantly reduced; effect on SARS-CoV-2 infection titers (in words) [4]: significantly reduced; IC50 ([6]; Severe acute respiratory syndrome coronavirus 2, HeLa-ACE2, HeLa-ACE2 (-TMPRSS2), WT PsV, read-out: IC50, inhibition of PsV entry): 0.4 nM; potency of bafilomycin A1 relative to Camostat in stopping viral entry ([7]; Vero-TMPRSS2, ratio of IC50 values): 26 fold; associated cell cytotoxicity (in words) (HeLa-ACE2 cells): without displaying any associated cell cytotoxicity
O=C(Nc1ccc([N+](=O)[O-])cc1Cl)c1cc(Cl)ccc1O [niclosamide] |  |  |  |  |  |  |  |  |  | 75% | 400 nM | endosomal acidification inhibition (in words) [11, 15]: efficient endosomal acidification inhibition; PsV infection (in words) [6, 15]: no measurable infection
